PubChem BioAssay AID248 (DTP/NCI, 2004)
Toxic doses and inconclusive results are not listed. No stated cut-off is given here; in the data, active means T/C of 150% or more; inactive means T/C below 125%. Numbered stars: 1 amine (or outer) side, 2 acyl side, 3 side chain; on linkers, the order of the positions; unused ones are H or OH. Bridge positions count the residues as written; N and C are the ends. Square brackets hold non-standard residues; d marks the D form. Peptide text beside a SMILES is read from it. I, II: the chains in the order shown. Actinocin(9to1) = Cc1c2oc3c(C)ccc(C(=O)[*:1])c3nc-2c(C(=O)[*:2])c(N)c1=O; NMeV = CN[CH](C(=O)O)C(C)C; Pip = O=C(O)[CH]1CCCCN1; Sar = CNCC(=O)O

System: L1210 leukemia ip in BDF1 mice, survival T/C
Experiment: NCI In Vivo Anticancer Drug Screen. Data for tumor model L1210 Leukemia (intraperitoneal) in B6D2F1 (BDF1) mice
Conditions: endpoint: mean survival time, higher = longer survival
Method in brief: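 Read-out is survival time, reported as the treated-group measurement over the vehicle-control measurement.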

[1] = dose: 100.0 mg/kg/injection, schedule: Q04DX003 (ip), vehicle: saline with Tween-80
[2] = dose: 200.0 mg/kg/injection, schedule: Q04DX003 (ip), vehicle: saline with Tween-80
[3] = dose: 400.0 mg/kg/injection, schedule: Q04DX003 (ip), vehicle: saline with Tween-80
[4] = dose: 100.0 mg/kg/injection, schedule: Q01DX009 (ip), vehicle: saline
[5] = dose: 100.0 mg/kg/injection, schedule: Q04DX003 (ip), vehicle: saline
[6] = dose: 100.0 mg/kg/injection, schedule: Q01DX001 (ip), vehicle: other
[7] = dose: 200.0 mg/kg/injection, schedule: Q01DX001 (ip), vehicle: other
[8] = dose: 100.0 mg/kg/injection, schedule: Q01DX001 (ip), vehicle: carboxymethylcellulose (CMC)
[9] = dose: 200.0 mg/kg/injection, schedule: Q01DX001 (ip), vehicle: carboxymethylcellulose (CMC)

Measured: T/C

CC(=O)NC1C(NC(=O)CC(NC(=O)OCc2ccccc2)C(=O)O)OC(COC(C)=O)C(OC(C)=O)C1OC(C)=O (stereo not drawn)
inactive: dose: 50.0 mg/kg/injection, schedule: Q04DX002 (ip), vehicle: saline 91 % of control | dose: 100.0 mg/kg/injection, schedule: Q04DX002 (ip), vehicle: saline 94 % of control | dose: 200.0 mg/kg/injection, schedule: Q04DX002 (ip), vehicle: saline 100 % of control

c1ccc(CC(Cc2ccccc2)NC2=NCCO2)cc1
inactive: dose: 6.25 mg/kg/injection, schedule: Q01DX009 (ip), vehicle: saline with Tween-80 106 % of control | dose: 6.25 mg/kg/injection, schedule: Q04DX003 (ip), vehicle: saline with Tween-80 107 % of control | dose: 12.5 mg/kg/injection, schedule: Q01DX009 (ip), vehicle: saline with Tween-80 94 % of control | dose: 12.5 mg/kg/injection, schedule: Q04DX003 (ip), vehicle: saline with Tween-80 106 % of control | dose: 25.0 mg/kg/injection, schedule: Q01DX009 (ip), vehicle: saline with Tween-80 89 % of control | dose: 25.0 mg/kg/injection, schedule: Q04DX003 (ip), vehicle: saline with Tween-80 102 % of control

COc1cc(OC)c(OC)cc1/C=N/Nc1ccc(C(=O)O)cc1
inactive: dose: 100.0 mg/kg/injection, schedule: Q01DX009 (ip), vehicle: saline with Tween-80 95 % of control | [1] 96 % of control | dose: 200.0 mg/kg/injection, schedule: Q01DX009 (ip), vehicle: saline with Tween-80 97 % of control | [2] 94 % of control | dose: 400.0 mg/kg/injection, schedule: Q01DX009 (ip), vehicle: saline with Tween-80 101 % of control | [3] 98 % of control

CCCC(C)NNC(C)CCC (stereo not drawn)
inactive: dose: 75.0 mg/kg/injection, schedule: Q01DX001 (ip), vehicle: acetone 96 % of control | dose: 75.0 mg/kg/injection, schedule: Q01DX001 (ip), vehicle: other 114 % of control | dose: 150.0 mg/kg/injection, schedule: Q01DX001 (ip), vehicle: acetone 101 % of control

CCOC(=O)n1ncnc1N
inactive: [4] 94 % of control | [5] 91 % of control | dose: 200.0 mg/kg/injection, schedule: Q01DX009 (ip), vehicle: saline 98 % of control | dose: 200.0 mg/kg/injection, schedule: Q04DX003 (ip), vehicle: saline 98 % of control | dose: 400.0 mg/kg/injection, schedule: Q01DX009 (ip), vehicle: saline 104 % of control | dose: 400.0 mg/kg/injection, schedule: Q04DX003 (ip), vehicle: saline 95 % of control

Cc1ccc(S(=O)(=O)N(CCC(=N)N)C(C)C)cc1
inactive: dose: 25.0 mg/kg/injection, schedule: Q01DX009 (ip), vehicle: saline 91 % of control | dose: 50.0 mg/kg/injection, schedule: Q01DX009 (ip), vehicle: saline 96 % of control | [4] 96 % of control | [5] 104 % of control

CCn1c(=O)cc(C)c2ccccc21
inactive: dose: 75.0 mg/kg/injection, schedule: Q01DX001 (ip), vehicle: carboxymethylcellulose (CMC) 104 % of control | dose: 150.0 mg/kg/injection, schedule: Q01DX001 (ip), vehicle: carboxymethylcellulose (CMC) 104 % of control | dose: 300.0 mg/kg/injection, schedule: Q01DX001 (ip), vehicle: carboxymethylcellulose (CMC) 96 % of control

CN(C)c1ccc(C(N)C(=O)O)cc1 (stereo not drawn)
inactive: dose: 50.0 mg/kg/injection, schedule: Q01DX001 (ip), vehicle: saline 101 % of control | dose: 100.0 mg/kg/injection, schedule: Q01DX001 (ip), vehicle: saline 98 % of control | dose: 200.0 mg/kg/injection, schedule: Q01DX001 (ip), vehicle: saline 95 % of control

COC1C=CC2OC(c3ccccc3)OCC2O1 (stereo not drawn)
inactive: [6] 101 % of control | [7] 101 % of control | dose: 400.0 mg/kg/injection, schedule: Q01DX001 (ip), vehicle: other 109 % of control

OCCOc1ccc(Cl)cc1Cl
inactive: dose: 50.0 mg/kg/injection, schedule: Q01DX001 (ip), vehicle: other 101 % of control | dose: 75.0 mg/kg/injection, schedule: Q01DX009 (ip), vehicle: saline with Tween-80 101 % of control | [6] 103 % of control | dose: 150.0 mg/kg/injection, schedule: Q01DX009 (ip), vehicle: saline with Tween-80 98 % of control | [7] 103 % of control | dose: 300.0 mg/kg/injection, schedule: Q01DX009 (ip), vehicle: saline with Tween-80 109 % of control

O=C1C/C(=C\c2ccccc2O)C(=O)c2ccccc21
inactive: dose: 10.0 mg/kg/injection, schedule: Q04DX002 (ip), vehicle: Klucel (hydroxypropylcellulose) (HPC) 101 % of control | dose: 20.0 mg/kg/injection, schedule: Q04DX002 (ip), vehicle: Klucel (hydroxypropylcellulose) (HPC) 93 % of control | dose: 40.0 mg/kg/injection, schedule: Q04DX002 (ip), vehicle: Klucel (hydroxypropylcellulose) (HPC) 101 % of control

CC(CO)(c1c[nH]c2ccccc12)c1c[nH]c2ccccc12
inactive: dose: 50.0 mg/kg/injection, schedule: Q01DX001 (ip), vehicle: carboxymethylcellulose (CMC) 102 % of control | [8] 96 % of control | [9] 96 % of control | dose: 400.0 mg/kg/injection, schedule: Q01DX001 (ip), vehicle: carboxymethylcellulose (CMC) 96 % of control

COC(=O)C(NC(=O)OCc1ccccc1)C(=O)OC
inactive: [1] 100 % of control | [2] 100 % of control | [3] 98 % of control

Cc1c2oc3c(C)ccc(C(=O)NC4C(=O)NC(C(C)C)C(=O)N5CCCCC5C(=O)N(C)CC(=O)N(C)C(C(C)C)C(=O)OC4C)c3nc-2c(C(=O)NC2C(=O)NC(C(C)C)C(=O)N3CCCCC3C(=O)N(C)CC(=O)N(C)C(C(C)C)C(=O)OC2C)c(N)c1=O (stereo not drawn) (I: TV[Pip][Sar][NMeV] / II: TV[Pip][Sar][NMeV]; ester I:1-I:C, II:1-II:C; linker I:N-II:N via Actinocin(9to1); configuration not given here)
inactive: dose: 0.5 mg/kg/injection, schedule: Q01DX001 (ip), vehicle: saline 105 % of control | dose: 0.5 mg/kg/injection, schedule: Q01DX009 (ip), vehicle: water 123 % of control | dose: 1.0 mg/kg/injection, schedule: Q01DX001 (ip), vehicle: saline 102 % of control | dose: 1.0 mg/kg/injection, schedule: Q01DX009 (ip), vehicle: water 104 % of control | dose: 1.8 mg/kg/injection, schedule: Q01DX001 (ip), vehicle: saline 116 % of control | dose: 2.0 mg/kg/injection, schedule: Q01DX001 (ip), vehicle: saline 112 % of control | dose: 2.6 mg/kg/injection, schedule: Q01DX001 (ip), vehicle: saline 109 % of control | dose: 6.0 mg/kg/injection, schedule: Q01DX001 (ip), vehicle: saline 103 % of control

Nc1c(Cl)ncnc1NC1CC(CO)CC1O (stereo not drawn)
inactive: dose: 100.0 mg/kg/injection, schedule: Q01DX001 (ip), vehicle: Klucel (hydroxypropylcellulose) (HPC) 96 % of control | dose: 200.0 mg/kg/injection, schedule: Q01DX001 (ip), vehicle: Klucel (hydroxypropylcellulose) (HPC) 93 % of control | dose: 400.0 mg/kg/injection, schedule: Q01DX001 (ip), vehicle: Klucel (hydroxypropylcellulose) (HPC) 96 % of control

COc1ccc(N)cc1
inactive: dose: 100.0 mg/kg/injection, schedule: Q01DX009 (ip), vehicle: alcohol 121 % of control | dose: 200.0 mg/kg/injection, schedule: Q01DX009 (ip), vehicle: alcohol 88 % of control

CN(C)c1ncnc2c1cnn2C
inactive: [8] 96 % of control | [9] 110 % of control
